For series [1] the following is noted: octanol/water, 25° C.; cited from earlier work.
The test system of series [2] is PR1 protein. Nature of the series: Evaluation of disease resistance: PR1 protein content of sprayed leaf by western blotting, rice. The format is in vivo. To be noted: seedling sheet Z-1, band density relative to thiazinyl solution of same period. As for the experimental part: (§1) The results are shown in the rows of “cultivation in paddy field” of Table 3 (rice) and Table 4 (tomato).
(§2) A 1/5000-are pot was filled with 2.9 kg of paddy field soil (clay loam). Ten young seedlings having 2 to 3 leaves grown by the above method were planted in a depth of 2 cm and watered, and the seedlings were placed in water at a depth of 3 cm. The seedlings were left to stand at 25° C. for a predetermined period shown in Table 3 or Table 4 (days (day) from moving to paddy field until evaluation). Each leaf sprayed with the nanoparticle (P) dispersion (or thiazinyl solution) was cut off, immersed in ion exchange water in a container for one minute, and taken out from the container. The liquid in the container was replaced by fresh ion exchange water. The leaf was further subjected to an operation of immersing in the fresh ion exchange water in the container for one minute and taking out of the container three times, whereby the nanoparticles (P) (or thiazinyl) attached to the leaf surface were removed. Then, proteins were extracted from the above leaf using 8-min Plant Tissue Total Protein Extraction Kit (available from Cosmo Bio Co., Ltd.), and the PR1 protein content, which is a marker of disease resistance, in the extracted proteins was determined as follows. The total protein content was quantified with Micro BCATM protein assay kit (available from THERMO Fisher Scientific). […]
(§3) The test was performed five times for each seedling. The PR1 protein content was evaluated by western blotting (including electrophoresis, transferring, and color development) specifically described later. […]
(§4) After a PR1 protein band was detected in the transferring membrane after the operations (1) to (3), the density of the band was quantified with Image J (available from National Institutes of Health, USA). In Examples 11 to 14, the quantified density of the band in each of Examples 11 to 14 was divided by the density of the band in Comparative Example 3. […]
(Immunoblotting shows a protein as a band on a membrane.)

Series [3] concerns PR1 protein. Description: Evaluation of disease resistance: PR1 protein content of sprayed leaf by western blotting, tomato. The series is classed as in vivo. To be noted: seedling sheet Z-1, band density relative to thiazinyl solution of same period. As for the experimental part: as §1, §2, §3, §4
The subject of series [4] is Hinohikari (rice). Nature of the series: Evaluation of crop injury after treatment with nanoparticles (P) or thiazinyl, rice. The format is in vivo. The arrangement: key: 0: Harmless (healthy); 1: minimally damaged; 2: slightly damaged; 3: moderately damaged; 4: significantly damaged; 5: complete leaf firing. The following applies: seedling sheet Z-1, 100 μL spray, thiazinyl 100 ppm. As for the experimental part: as §1
(§5) Young seedlings were treated with the nanoparticles (P) or thiazinyl in the same manner as in the method described in <Evaluation of disease resistance>. Then, the degree of crop injury on the leaf surface was evaluated after a predetermined period of time (days (day) shown in Tables 3 and 4, from moving to the paddy field until evaluation). Specifically, crop injury was visually evaluated with the naked eye according to the following criteria.

Series [5] relates to House Momotaro (tomato). Nature of the series: Evaluation of crop injury after treatment with nanoparticles (P) or thiazinyl, tomato. The format is in vivo. The arrangement: key: 0: Harmless (healthy); 1: minimally damaged; 2: slightly damaged; 3: moderately damaged; 4: significantly damaged; 5: complete leaf firing. The following applies: seedling sheet Z-1, 100 μL spray, thiazinyl 100 ppm. As for the experimental part: as §1, §5

For series [6], the system named is Hinohikari (rice). Description: Aerial part growing ratio after treatment with nanoparticles (P) or thiazinyl, rice. The series is classed as in vivo. The following applies: seedling sheet Z-1, relative to thiazinyl solution of same period. As for the experimental part: as §1
(§6) Young seedlings were treated with the nanoparticles (P) or thiazinyl in the same manner as in the method described in the <Evaluation of disease resistance>, and the aerial part growing state was evaluated after a predetermined period (shown in Tables 3 and 4, days (day) from moving to the paddy field until evaluation). Specifically, the aerial part growing state was evaluated by measuring the length of each part. The aerial part length in each example treated with the nanoparticles (P) for a predetermined period was divided by the aerial part length in the comparative example treated with a thiazinyl solution for the same period. The calculated value was regarded as the aerial part growing ratio.

Series [7] concerns House Momotaro (tomato). Description: Aerial part growing ratio after treatment with nanoparticles (P) or thiazinyl, tomato. To be noted: seedling sheet Z-1, relative to thiazinyl solution of same period. The series is classed as in vivo. As for the experimental part: as §1, §6
[8] abbreviates: 1 day from moving to paddy field.
Where [9] appears, read: 3 days from moving to paddy field.
Setting [10] is: 7 days from moving to paddy field.

Take `Cc1c(F)c(F)c(COC(=O)[C@@H]2[C@H](/C=C(\Cl)C(F)(F)F)C2(C)C)c(F)c1F` (racemic) [tefluthrin]: the “Log Pow” value in series [1] is on record as 6.5.
With `N#Cc1c(Cl)c(Cl)c(Cl)c(C#N)c1Cl` [TPN, chlorothalonil], the “Log Pow” value in series [1] is 2.92.
Regarding `CSC(=O)c1cccc2nnsc12` [acibenzolar-S-methyl], the “Log Pow” value in series [1] is listed as 3.1.
Turning to `CC1(C)[C@H](C(=O)O[C@H](C#N)c2cccc(Oc3ccccc3)c2)[C@@H]1/C=C\C(=O)OC(C(F)(F)F)C(F)(F)F` [acrinathrin], the “Log Pow” value in series [1] is listed as 5.25.
As for `O=C1C2CC=CCC2C(=O)N1SC(Cl)(Cl)Cl` (centres unmarked) [captan], the “Log Pow” value in series [1] was 2.8.
With `CCOP(=S)(OCC)Oc1cc(C)nc(C(C)C)n1` [diazinon], in series [1], the “Log Pow” value is given as 3.3.
Take `CCOc1ccc(NC(=O)OC(C)C)cc1OCC` [diethofencarb]: the “Log Pow” value in series [1] is on record as 3.02.
For the compound `N#CC(CCc1ccc(Cl)cc1)(Cn1cncn1)c1ccccc1` (centres unmarked) [fenbuconazole], the “Log Pow” value in series [1] is 3.23.
Consider `COP(=S)(OC)Oc1ccc([N+](=O)[O-])c(C)c1` [fenitrothion], for which, in series [1], the “Log Pow” value is recorded as 3.43.
On to `C/C(=N/Nc1nc(C)cc(C)n1)c1ccccc1C` [ferimzone], for which the “Log Pow” value in series [1] is reported as 2.89.
`O=C(NC(=O)c1c(F)cccc1F)Nc1ccc(Cl)c(Oc2ncc(C(F)(F)F)cc2Cl)c1` [fluazuron]: the “Log Pow” value in series [1] is reported as 5.1.
With `O=[N+]([O-])c1ccc(NS(=O)(=O)c2ccc(Cl)c(C(F)(F)F)c2)c(Cl)c1` [flusulfamide], in series [1], the “Log Pow” value is recorded as 2.8.
For `CC(C)Oc1cccc(NC(=O)c2ccccc2C(F)(F)F)c1` [flutolanil], the “Log Pow” value in series [1] is recorded as 3.17.
For `CC(C)[C@H](Nc1ccc(C(F)(F)F)cc1Cl)C(=O)OC(C#N)c1cccc(Oc2ccccc2)c1` (some centres unmarked) [fluvalinate], in series [1], the “Log Pow” value was 2.9.
As for `CCOP(=O)(SC(C)CC)N1CCSC1=O` (centres unmarked) [fosthiazate], in series [1], the “Log Pow” value is given as 1.68.
Take `O=C1OCc2c(Cl)c(Cl)c(Cl)c(Cl)c21` [fthalide]: the “Log Pow” value in series [1] was 3.01.
With `Cc1nn(C)c(Cl)c1C(=O)Nc1cccc2c1C(C)OC2(C)C` (centres unmarked) [furametpyr], the “Log Pow” value in series [1] is reported as 2.36.
With `O=C(NC(=O)c1c(F)cccc1F)Nc1cc(Cl)c(OC(F)(F)C(F)F)c(Cl)c1` [hexaflumuron], in series [1], the “Log Pow” value was 4.68.
`CC(C)OP(=O)(OC(C)C)SCc1ccccc1` [iprobenfos]: in series [1], the “Log Pow” value is 3.37.
On to `N#Cc1ccccc1NC(=O)c1snc(Cl)c1Cl` [isotianil], for which the “Log Pow” value in series [1] was 2.96.
As to `O=C(NC(=O)c1c(F)cccc1F)Nc1cc(Cl)c(OC(F)(F)C(F)C(F)(F)F)cc1Cl` (centres unmarked) [lufenuron], the “Log Pow” value in series [1] is on record as 5.12.
With `COCC(=O)N(c1c(C)cccc1C)C(C)C(=O)OC` (centres unmarked) [metalaxyl], in series [1], the “Log Pow” value is listed as 1.75.
Take `COc1nn(CSP(=S)(OC)OC)c(=O)s1` [methidathion]: in series [1], the “Log Pow” value is 2.2.
Regarding `CCCCC(C#N)(Cn1cncn1)c1ccc(Cl)cc1` (centres unmarked) [myclobutanil], in series [1], the “Log Pow” value is reported as 2.9.
Take `C=CCCCOC(=O)C(CC)N(Cc1ccco1)C(=O)n1ccnc1` (centres unmarked) [pefurazoate]: in series [1], the “Log Pow” value is reported as 3.0.
As to `CCCSP(=O)(OCC)Oc1cnn(-c2ccc(Cl)cc2)c1` (centres unmarked) [pyraclofos], the “Log Pow” value in series [1] was 3.77.
On to `O=C1CCc2cccc3c2N1CC3` [pyroquilone], for which, in series [1], the “Log Pow” value is on record as 1.42.
With `Cc1ccc(NC(=O)c2snnc2C)cc1Cl` [thiazinyl], the “PR1 protein mass ratio” value in the series with PR1 protein [2] (1 day), with PR1 protein [2] (3 days), with PR1 protein [2] (7 days), in the series on PR1 protein [3] (1 day), in the series on PR1 protein [3] (3 days) and in the series with PR1 protein [3] (7 days) was 1.0 each time. Besides, the Crop injury stood at 3 in the series with Hinohikari (rice) [4] (setting [8]); 4 in the series on Hinohikari (rice) [4] (setting [9]); 4 in the series on Hinohikari (rice) [4] (setting [10]); 2 in the series with House Momotaro (tomato) [5] (setting [8]); 3 in the series on House Momotaro (tomato) [5] (setting [9]); 3 in the series on House Momotaro (tomato) [5] (setting [10]). The “Aerial part growth ratio” value with Hinohikari (rice) [6] (1 day), in the series with Hinohikari (rice) [6] (3 days), with Hinohikari (rice) [6] (7 days), in the series on House Momotaro (tomato) [7] (1 day), with House Momotaro (tomato) [7] (3 days) and in the series with House Momotaro (tomato) [7] (7 days) was 1.0 in each case. In series [1], the “Log Pow” value is on record as 3.68.
On to `COC(=O)c1c(C(F)F)nc(C(F)(F)F)c(C2=NCCS2)c1CC(C)C` [thiazopyr], for which the “Log Pow” value in series [1] is 3.89.
As to `CS/C(C)=N\OC(=O)N(C)SN(C)C(=O)O/N=C(\C)SC` [thiodicarb], the “Log Pow” value in series [1] was 1.62.
In the case of `COC(=O)NC(=S)Nc1ccccc1NC(=S)NC(=O)OC` [thiophanate-methyl], the “Log Pow” value in series [1] is recorded as 1.5.
On to `CN(C)C(=S)SSC(=S)N(C)C` [thiuram], for which, in series [1], the “Log Pow” value is given as 1.73.

(Values after patent publication US20210153502A1, “PLANT GROWTH AID AND PLANT GROWING METHOD” (priority 2018, published 2021).)
